# Laboratory results published in US8216587B1, “Method of vaccination” (PCI Biotech AS, priority 1999, dated 2012).
# Key:
# THX cells = test: Photochemically induced GFP expression after pEGFP-N1-pLys transfection (flow cytometry); format: cell-based; conditions: for change in GFP expression with photosensitiser and light: pEGFP-N1-pLys complex plus photosensitiser and light, FIG. 5a, 5b; for fraction of the cells positive for GFP: AlPcS2a plus pEGFP-N1-pLys complex
# Experimental: Plasmid-pLys complexes (charge ratio, 1.7) were prepared by gently mixing 5 μg plasmid (pEGFP-N1; Clontech Laboratories, Inc., Palo Alto, Calif.) in 75 μl of HBS with 5.3 μg pLys (MW 20700; Sigma, St. Louis, Mo.) in 75 μl of HBS. The solutions were incubated for 30 min at room temperature, diluted with culture medium and added to the cells.
# THX cells were incubated with 20 μg/ml AlPcS2a for 18 hours at 37° C., washed and incubated in sensitizer-free medium for 3 hours before incubation with plasmid-pLys complexes for 2 hours. The pEGFP-N1/pLys treated THX cells were washed once and incubated for 2 hours in culture medium without additions before exposure to light. The cells were incubated at 37° C. for 2 days, subcultured and further incubated for an additional 5 days before analysis of GFP expression by flow cytometry.
# The cells were trypsinised, centrifuged, resuspended in 400 μl of culture medium and filtered through a 50 μm mesh nylon filter. The cells were then analysed in a FACStar plus flow cytometer (Becton Dickinson). Green Fluorescent Protein (GFP) was measured through a 510-530 nm filter after excitation with an argon laser (200 mW) tuned on 488 nm. AlPcS2a was measured through a 650 nm longpass filter after excitation with a krypton laser (50 mW) tuned on 351-356 nm. Cell doublets were discriminated from single cells by gating on the pulse width of the GFP fluorescence signal. The data were analysed with PC Lysys II software (Becton Dickinson).
# The expression of GFP was analysed by flow cytometry (FIGS. 5a and b) and fluorescence microscopy (data not shown). […] The fraction of the cells that was positive for this reporter molecule increased from 1% at no light treatment to 50% after a 5-min light exposure. […] Consequently, in a light-directed manner, PCI can substantially increase the efficiency of transfection of a functional gene to THX cells.
# NHIK 3025 cells = test: PCI-induced release of endocytosed HRP into the cytosol; format: cell-based, human; conditions: 3.2 μg/ml TPPS2a and 1 mg/ml HRP for 18 h, then light; FIG. 4
# Experimental: In this experiment NHIK 3025 cells (carcinoma cells in situ from human cervix) were treated with the photosensitising agent TPPS2a (3.2 μg/ml) and 1 mg/ml HRP for 18 hours. HRP activity was measured according to the procedure described in Steinman et al., J. Cell Biol., 68: 665-687, 1976. Cytosol was separated from cytosol-free cell corpses by electropermeabilisation and a density centrifugation technique (Berg et al., Int. J. Cancer 59: 814-822, 1994).
# BL2-G-E6 cells = test: Photochemically induced relocalisation of fluorescein-labelled ras peptide (fluorescence microscopy); format: cell-based, mouse; conditions: peptide plus AlPcS2a; after a 4-min exposure to red light
# Experimental: Two different light sources were used for treatment of the cells, both consisting of a bank of 4 fluorescent tubes.
# The cells were analysed by fluorescence microscopy as described in Berg. K., et al., Biochem. Biophys. Acta., 1370: 317-324, 1998. For analysis of fluorescein-labelled molecules the microscope was equipped with a 450-490 nm excitation filter, a 510 nm dichroic beam splitter and a 510-540 nm band pass emission filter.
# BL2-G-E6 cells were incubated with 30 μg/ml of the fluorescein-labelled p21^ras-derived peptide for 18 hours followed by 20 μg/ml AlPcS2a for 18 hours and 1 hour in drug-free medium before exposure to red light.
# To evaluate PCI for cytosolic delivery of cancer-specific peptides, a fluorescein-labelled p21^ras peptide encompassing residues 5-21 and containing a Val^12 mutation (G12V) was used (Gjertsen, M. K., et al., Int. J. Cancer, 72: 784-790, 1997). […] Similar effects were not observed in cells exposed to the fluorescein-labelled ras peptide and light only (data not shown).
Molecule,change in GFP expression with photosensitiser and light (THX cells),fraction of endocytosed HRP released into the cytosol (NHIK 3025 cells) [%],fraction of the cells positive for GFP (THX cells; after a 5-min light exposure) [%],fraction of the cells positive for GFP (THX cells; no light treatment) [%],localisation after light exposure (BL2-G-E6 cells)
Oc1cccc(-c2c3nc(c(-c4cccc(O)c4)c4ccc([nH]4)c(-c4cccc(O)c4)c4nc(c(-c5cccc(O)c5)c5ccc2[nH]5)C=C4)C=C3)c1 [3-THPP],only a minor increase,–,–,–,–
Horseradish Peroxidase [HRP],–,> 60,–,–,–
aluminum phthalocyanine with 2 sulfonate groups on adjacent phenyl rings [AlPcS2a],strong increase,–,50,1,located diffusely in the cytoplasm
